According to patent US9447114B2, “Thieno- and furo[2,3-d]pyrimidine-2,4[1H,3H]-dione derivatives” (Hydra Biosciences, Inc., priority 2014, dated 2016):

Experiments:
TRPC5 channel [1] = target: T1, TRPC5 channel (Homo sapiens (Human), UniProt Q9UL62); assay: Whole-cell patch clamp of TRPC5 current; format: cell-based; details: TRPC5-expressing HEK293 TREx cells, current activated by 80 μM LaCl3 and 1.4 μM free Ca2+ in pipette, IC50 estimated
Excerpt: Patch clamp experiments permit the detection of currents through the TRPC5 channel in the cell line described above. In normal whole-cell patch clamp recordings, a glass electrode is brought into contact with a single cell and a high-resistance (gigaohm) seal is established with the cell membrane. The membrane is then ruptured to achieve the whole-cell configuration, permitting control of the voltage of the cell membrane and measurement of currents flowing across the membrane using the amplifier attached to the electrode and resulting in the replacement of cytoplasm with the pipette solution. A perfusion system permits control of the extracellular solution, including the addition of blockers and activators of the current. The current can be activated by including 1.4 μM free Ca^2+ in the pipette (intracellular) solution, and 80 μM LaCl3 in the extracellular solution.
TRPC5 cells were induced 20-48 hours, removed from growth plates, and replated at low density (to attain good single-cell physical separation) on glass coverslips for measurement. In some cases, cells were grown in low density overnight on glass coverslips. Patch clamp recordings were made in the whole-cell mode with a holding potential of −40 mV. Every 5 seconds, a voltage ramp was applied from −120 to +100 mV, 400 ms in duration. Currents elicited were quantified at −80 mV and +80 mV. The internal solution consisted of 140 mM cesium aspartate, 10 mM HEDTA, 2 mM CaCl2, 2.27 mM MgCl2 and 10 mM HEPES, pH 7.2, with 1,400 nM calculated free Ca^2+. The external solution consisted of 150 mM NaCl, 4.5 mM KCl, 1 mM MgCl2, 2 mM CaCl2 10 mM HEPES, 10 mM glucose, 1 mM EGTA, pH 7.4. Upon addition of LaCl3, TRPC5 current was induced only in TRPC5-expressing cells and not in parental HEK293 TREx cells. Removal of the LaCl3 stimulus causes most of the current to go away. Potential blockers were tested for ability to block both inward and outward currents in the continued presence of LaCl3.
IC50 of a compound of Formula (I) was estimated by testing the compound at 5 μM and 500 nM. […] IC50 for a compound of Formula (I) between 500 nM and 5 μM was similarly estimated.

TRPC5 channel [2] = target: T1, TRPC5 channel; assay: High throughput screening assay: intracellular Ca2+ rise, Fluo4 cell-based fluorescence; details: HEK293/TREx cells inducibly expressing TRPC5, high-Ca2+ Ringer, 14 mM Ca2+ final, triplicate, 0.027-20 μM
Excerpt: The assay depended on detection of the rise in intracellular Ca2+ concentration ([Ca2+]i) following channel activation in cells inducibly expressing the TRPC5 channel. Ca2+ rise was quantified with the use of fluorescent Ca2+ indicators that were loaded into cells and thereafter indicated the [Ca2+]i Ca2+ influx followed activation of the TRPC5 channel. Compounds inhibiting the [Ca2+]i rise were considered hits for further investigation.
The commercially available HEK293/TREx line (Invitrogen) was stably transfected with a TRPC5 construct and screened by conventional calcium imaging to find clones with TRPC5 expression following stimulation with 1 μg/ml tetracycline. These cells were maintained in the growth medium recommended by the manufacturer supplemented with 100 μg/ml hygromycin to promote retention of the TRPC5 construct. After growing to near confluency, cells were plated at a density of ˜35,000 cells/well in 384 well CellBind plates (Corning) in the presence of 1 μg/ml tetracycline, and allowed to grow for 20-30 hrs. A nearly confluent monolayer resulted. Cells were then loaded with Ca2+ dye: Fura-2/AM or Fluo4/AM was added to the wells to a final concentration of 4 μM or 0.5 μM, respectively, and incubated for 80 min or 60 min, respectively, at room temperature. Supernatant was then removed from the cells by inverting plates with a sharp flick, and 25 μl Hank's Balanced Salt Solution (HBSS; 0.185 g/l D-glucose, 0.9767 g/l MgS04 (anhydrous), 0.4 g/l KCl, 0.06 g/l KH2PO4 (anhydrous), 0.35 g/l NaHCO3, 8.0 g/l NaCl, and 0.04788 g/l Na2HPO4 (anhydrous); pH 7.4) was then added to each well. Following ˜0.5 hour for recovery from loading, cells were assayed using the Hamamatsu FDSS 6000 system, which permitted illumination alternately at 340 nm and 380 nm for Fura-2 experiments, or at 485 nm for Fluo4 experiments. Frames were acquired at a rate of 0.2 Hz. During the assay, the plates were continuously vortexed, with pipette mixing of wells following addition of each reagent. For the screening assay, 26 μl of a diluted compound stock (at 50 μM) was added to each well for 2 minutes following the collection of a short (4 frame) baseline. 13 μl 62 mM high-Ca2+Ringer solution (4.17 ml of normal ringer (with 2 mM Ca2+) plus 5.83 ml of isotonic calcium ringer (105 mM Ca2+; in this ringer all sodium has been replaced with calcium)) was then added to each well, achieving a final concentration of 14 mM Ca2+ and 10 μM test compound. Data was collected for ˜3 minutes following addition of high Ca2+Ringer, where the fluorescent intensity (for Fluo4) and the F340/F380 ratio (for Fura-2) were proportional to the [Ca2+]i Negative controls consisted of HEK293/TREx TRPC5 cells exposed to high Ca2+ solution, but no compound. Positive control conditions consisted of addition of 2-APB, a promiscuous blocker of TRPC5 and other channels, to columns 23 and 24 of the plates, to a final concentration of 200 μM. These controls defined a screening window, and “hits” were defined as those compounds inhibiting the fluorescence response by at least 40%. IC50 values were determined for compounds defined as “hits.” The Fluo4 cell-based fluorescence assay was used to determine the intracellular Ca2+ concentration in the presence of varying drug concentration. Final concentrations of compounds tested were 20 μM, 6.667 μM, 2.222 μM, 0.741 μM, 0.247 μM, 0.082 μM, and 0.027 μM. Compounds were tested in triplicate at all concentrations. Standard software was used to fit IC50 curves.
Additionally or alternatively, efficacy can be represented as % inhibition in the presence (of a given concentration of compound) versus the absence of compound or in comparison to a control compound. For example, efficacy can be represented as % inhibition of ion flux in the presence versus the absence of compound.

T1 sequence (Q9UL62 whole entry, the tested form may be a part): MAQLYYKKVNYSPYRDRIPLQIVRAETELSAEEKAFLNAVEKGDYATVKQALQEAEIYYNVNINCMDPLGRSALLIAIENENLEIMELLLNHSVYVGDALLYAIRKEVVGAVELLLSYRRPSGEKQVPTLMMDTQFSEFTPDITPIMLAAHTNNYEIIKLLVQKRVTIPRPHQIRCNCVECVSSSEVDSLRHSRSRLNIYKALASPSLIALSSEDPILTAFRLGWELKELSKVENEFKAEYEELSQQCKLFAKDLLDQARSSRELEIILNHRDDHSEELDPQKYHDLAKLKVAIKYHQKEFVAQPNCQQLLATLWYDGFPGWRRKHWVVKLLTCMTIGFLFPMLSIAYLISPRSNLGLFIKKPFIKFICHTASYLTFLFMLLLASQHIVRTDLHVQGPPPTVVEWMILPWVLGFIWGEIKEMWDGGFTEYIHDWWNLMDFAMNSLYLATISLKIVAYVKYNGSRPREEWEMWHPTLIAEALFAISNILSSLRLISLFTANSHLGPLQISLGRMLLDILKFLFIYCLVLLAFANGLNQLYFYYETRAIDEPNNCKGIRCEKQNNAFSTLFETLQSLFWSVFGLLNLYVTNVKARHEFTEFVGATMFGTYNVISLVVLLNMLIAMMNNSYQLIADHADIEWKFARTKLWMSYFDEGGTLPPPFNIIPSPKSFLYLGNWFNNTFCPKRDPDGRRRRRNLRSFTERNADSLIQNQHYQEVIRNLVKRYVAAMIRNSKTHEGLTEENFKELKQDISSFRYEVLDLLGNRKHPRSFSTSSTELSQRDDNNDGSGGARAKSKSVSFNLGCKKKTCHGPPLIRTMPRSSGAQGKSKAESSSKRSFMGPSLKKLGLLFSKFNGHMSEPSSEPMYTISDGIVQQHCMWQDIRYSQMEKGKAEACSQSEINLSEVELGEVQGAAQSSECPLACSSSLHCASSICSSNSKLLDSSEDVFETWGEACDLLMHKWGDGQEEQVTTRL

IC50 (TRPC5 channel [1]): < 1 nM
IC50 (TRPC5 channel [2]): 1.91 nM
SMILES: Cn1c(=O)n(CCCO)c(=O)c2c(Cc3ccc(Cl)cc3)c(-c3cccc(OC(F)(F)F)c3)sc21 [Compound 26, 5-(4-chlorobenzyl)-3-(3-hydroxypropyl)-1-methyl-6-(3-(trifluoromethoxy)phenyl)thieno[2,3-d]pyrimidine-2,4(1H,3H)-dione]
